± gives the expanded uncertainty stated by the source.
Test: xn = mol fraction of the nth substance listed
Conditions: Liquid, Vibrating tube method

COc1cc2c(cc1O)CC1c3c(cc(O)c(OC)c3-2)CCN1C (stereo not given) [boldine] + CCCO
Conditions	mass density [kg/m3]
323.11 K, 16000 kPa, x1 = 0.0112	811.88 ± 0.75
323.11 K, 16000 kPa, x1 = 0.0142	816.47 ± 0.67
323.11 K, 17000 kPa, x1 = 0.0112	812.65 ± 0.75
323.11 K, 17000 kPa, x1 = 0.0142	817.24 ± 0.67
323.11 K, 18000 kPa, x1 = 0.0112	813.42 ± 0.76
323.11 K, 18000 kPa, x1 = 0.0142	818 ± 0.67
323.11 K, 19000 kPa, x1 = 0.0112	814.16 ± 0.76
323.11 K, 19000 kPa, x1 = 0.0142	818.74 ± 0.68
323.11 K, 20000 kPa, x1 = 0.0112	814.92 ± 0.76
323.11 K, 20000 kPa, x1 = 0.0142	819.49 ± 0.67
323.12 K, 1000 kPa, x1 = 0.0077	792.79 ± 0.66
323.12 K, 2000 kPa, x1 = 0.0077	793.61 ± 0.67
323.12 K, 3000 kPa, x1 = 0.0077	794.44 ± 0.67
323.12 K, 4000 kPa, x1 = 0.0077	795.28 ± 0.67
323.12 K, 5000 kPa, x1 = 0.0077	796.12 ± 0.67
323.12 K, 6000 kPa, x1 = 0.0077	796.97 ± 0.67
323.12 K, 7000 kPa, x1 = 0.0077	797.82 ± 0.68
323.12 K, 8000 kPa, x1 = 0.0077	798.67 ± 0.68
323.12 K, 9000 kPa, x1 = 0.0077	799.51 ± 0.68
323.12 K, 10000 kPa, x1 = 0.0077	800.35 ± 0.68
323.12 K, 11000 kPa, x1 = 0.0077	801.2 ± 0.69
323.12 K, 12000 kPa, x1 = 0.0077	802.03 ± 0.69
323.12 K, 13000 kPa, x1 = 0.0077	802.85 ± 0.69
323.12 K, 14000 kPa, x1 = 0.0077	803.66 ± 0.69
323.12 K, 15000 kPa, x1 = 0.0077	804.47 ± 0.7
323.12 K, 16000 kPa, x1 = 0.0077	805.27 ± 0.7
323.12 K, 17000 kPa, x1 = 0.0077	806.04 ± 0.7
323.12 K, 18000 kPa, x1 = 0.0077	806.81 ± 0.71
323.12 K, 19000 kPa, x1 = 0.0077	807.57 ± 0.71
323.12 K, 20000 kPa, x1 = 0.0077	808.3 ± 0.71
323.14 K, 1000 kPa, x1 = 0.0046	788.94 ± 0.7
323.14 K, 2000 kPa, x1 = 0.0046	789.78 ± 0.7
323.14 K, 3000 kPa, x1 = 0.0046	790.61 ± 0.7
323.14 K, 4000 kPa, x1 = 0.0046	791.45 ± 0.7
323.14 K, 5000 kPa, x1 = 0.0046	792.3 ± 0.71
323.14 K, 6000 kPa, x1 = 0.0046	793.15 ± 0.71
323.14 K, 7000 kPa, x1 = 0.0046	794.01 ± 0.71
323.14 K, 8000 kPa, x1 = 0.0046	794.86 ± 0.71
323.14 K, 9000 kPa, x1 = 0.0046	795.72 ± 0.71
323.14 K, 10000 kPa, x1 = 0.0046	796.56 ± 0.72
323.14 K, 11000 kPa, x1 = 0.0046	797.4 ± 0.72
323.14 K, 12000 kPa, x1 = 0.0046	798.24 ± 0.72
323.14 K, 13000 kPa, x1 = 0.0046	799.07 ± 0.72
323.14 K, 14000 kPa, x1 = 0.0046	799.88 ± 0.73
323.14 K, 15000 kPa, x1 = 0.0046	800.71 ± 0.73
323.14 K, 16000 kPa, x1 = 0.0046	801.5 ± 0.73
323.14 K, 17000 kPa, x1 = 0.0046	802.28 ± 0.74
323.14 K, 18000 kPa, x1 = 0.0046	803.06 ± 0.74
323.14 K, 19000 kPa, x1 = 0.0046	803.81 ± 0.74
323.14 K, 20000 kPa, x1 = 0.0046	804.56 ± 0.75
333.04 K, 1000 kPa, x1 = 0.0018	774.01 ± 0.92
333.04 K, 1000 kPa, x1 = 0.0077	784.16 ± 0.67
333.04 K, 1000 kPa, x1 = 0.0112	790.89 ± 0.72
333.04 K, 1000 kPa, x1 = 0.0142	795.51 ± 0.64
333.04 K, 2000 kPa, x1 = 0.0018	774.92 ± 0.92
333.04 K, 2000 kPa, x1 = 0.0077	785.05 ± 0.67
333.04 K, 2000 kPa, x1 = 0.0112	791.78 ± 0.72
333.04 K, 2000 kPa, x1 = 0.0142	796.38 ± 0.64
333.04 K, 3000 kPa, x1 = 0.0018	775.82 ± 0.92
333.04 K, 3000 kPa, x1 = 0.0077	785.95 ± 0.67
333.04 K, 3000 kPa, x1 = 0.0112	792.66 ± 0.72
333.04 K, 3000 kPa, x1 = 0.0142	797.27 ± 0.64
333.04 K, 4000 kPa, x1 = 0.0018	776.73 ± 0.92
333.04 K, 4000 kPa, x1 = 0.0077	786.85 ± 0.67
333.04 K, 4000 kPa, x1 = 0.0112	793.55 ± 0.72
333.04 K, 4000 kPa, x1 = 0.0142	798.15 ± 0.64
333.04 K, 5000 kPa, x1 = 0.0018	777.64 ± 0.93
333.04 K, 5000 kPa, x1 = 0.0077	787.74 ± 0.67
333.04 K, 5000 kPa, x1 = 0.0112	794.46 ± 0.73
333.04 K, 5000 kPa, x1 = 0.0142	799.05 ± 0.64
333.04 K, 6000 kPa, x1 = 0.0018	778.55 ± 0.93
333.04 K, 6000 kPa, x1 = 0.0077	788.65 ± 0.68
333.04 K, 6000 kPa, x1 = 0.0112	795.35 ± 0.73
333.04 K, 6000 kPa, x1 = 0.0142	799.92 ± 0.64
333.04 K, 7000 kPa, x1 = 0.0018	779.47 ± 0.93
333.04 K, 7000 kPa, x1 = 0.0077	789.55 ± 0.68
333.04 K, 7000 kPa, x1 = 0.0112	796.25 ± 0.73
333.04 K, 7000 kPa, x1 = 0.0142	800.8 ± 0.64
333.04 K, 8000 kPa, x1 = 0.0018	780.38 ± 0.93
333.04 K, 8000 kPa, x1 = 0.0077	790.45 ± 0.68
333.04 K, 8000 kPa, x1 = 0.0112	797.14 ± 0.73
333.04 K, 8000 kPa, x1 = 0.0142	801.7 ± 0.65
333.04 K, 9000 kPa, x1 = 0.0018	781.29 ± 0.93
333.04 K, 9000 kPa, x1 = 0.0077	791.35 ± 0.68
333.04 K, 9000 kPa, x1 = 0.0112	798.03 ± 0.73
333.04 K, 9000 kPa, x1 = 0.0142	802.57 ± 0.65
333.04 K, 10000 kPa, x1 = 0.0018	782.18 ± 0.93
333.04 K, 10000 kPa, x1 = 0.0077	792.22 ± 0.69
333.04 K, 10000 kPa, x1 = 0.0112	798.91 ± 0.74
333.04 K, 10000 kPa, x1 = 0.0142	803.44 ± 0.65
333.04 K, 11000 kPa, x1 = 0.0018	783.07 ± 0.94
333.04 K, 11000 kPa, x1 = 0.0077	793.11 ± 0.69
333.04 K, 11000 kPa, x1 = 0.0112	799.78 ± 0.74
333.04 K, 11000 kPa, x1 = 0.0142	804.31 ± 0.65
333.04 K, 12000 kPa, x1 = 0.0018	783.97 ± 0.94
333.04 K, 12000 kPa, x1 = 0.0077	793.99 ± 0.69
333.04 K, 12000 kPa, x1 = 0.0112	800.64 ± 0.74
333.04 K, 12000 kPa, x1 = 0.0142	805.16 ± 0.66
333.04 K, 13000 kPa, x1 = 0.0018	784.84 ± 0.94
333.04 K, 13000 kPa, x1 = 0.0077	794.86 ± 0.69
333.04 K, 13000 kPa, x1 = 0.0112	801.49 ± 0.74
333.04 K, 13000 kPa, x1 = 0.0142	806.02 ± 0.66
333.04 K, 14000 kPa, x1 = 0.0018	785.7 ± 0.94
333.04 K, 14000 kPa, x1 = 0.0077	795.71 ± 0.7
333.04 K, 14000 kPa, x1 = 0.0112	802.35 ± 0.75
333.04 K, 14000 kPa, x1 = 0.0142	806.86 ± 0.66
333.04 K, 15000 kPa, x1 = 0.0018	786.56 ± 0.95
333.04 K, 15000 kPa, x1 = 0.0077	796.55 ± 0.7
333.04 K, 15000 kPa, x1 = 0.0112	803.19 ± 0.75
333.04 K, 15000 kPa, x1 = 0.0142	807.69 ± 0.67
333.04 K, 16000 kPa, x1 = 0.0018	787.41 ± 0.95
333.04 K, 16000 kPa, x1 = 0.0077	797.38 ± 0.7
333.04 K, 16000 kPa, x1 = 0.0112	804 ± 0.75
333.04 K, 16000 kPa, x1 = 0.0142	808.51 ± 0.67
333.04 K, 17000 kPa, x1 = 0.0018	788.23 ± 0.95
333.04 K, 17000 kPa, x1 = 0.0077	798.2 ± 0.71
333.04 K, 17000 kPa, x1 = 0.0112	804.81 ± 0.75
333.04 K, 17000 kPa, x1 = 0.0142	809.32 ± 0.67
333.04 K, 18000 kPa, x1 = 0.0018	789.05 ± 0.95
333.04 K, 18000 kPa, x1 = 0.0077	799.02 ± 0.71
333.04 K, 18000 kPa, x1 = 0.0112	805.61 ± 0.76
333.04 K, 18000 kPa, x1 = 0.0142	810.12 ± 0.68
333.04 K, 19000 kPa, x1 = 0.0018	789.86 ± 0.95
333.04 K, 19000 kPa, x1 = 0.0077	799.81 ± 0.71
333.04 K, 19000 kPa, x1 = 0.0112	806.39 ± 0.76
333.04 K, 19000 kPa, x1 = 0.0142	810.91 ± 0.68
333.04 K, 20000 kPa, x1 = 0.0018	790.65 ± 0.96
333.04 K, 20000 kPa, x1 = 0.0077	800.56 ± 0.72
333.04 K, 20000 kPa, x1 = 0.0112	807.16 ± 0.76
333.04 K, 20000 kPa, x1 = 0.0142	811.68 ± 0.69
333.07 K, 1000 kPa, x1 = 0.0046	780.3 ± 0.7
333.07 K, 2000 kPa, x1 = 0.0046	781.23 ± 0.7
333.07 K, 3000 kPa, x1 = 0.0046	782.1 ± 0.7
333.07 K, 4000 kPa, x1 = 0.0046	783.02 ± 0.71
333.07 K, 5000 kPa, x1 = 0.0046	783.92 ± 0.71
333.07 K, 6000 kPa, x1 = 0.0046	784.83 ± 0.71
333.07 K, 7000 kPa, x1 = 0.0046	785.74 ± 0.71
333.07 K, 8000 kPa, x1 = 0.0046	786.64 ± 0.72
333.07 K, 9000 kPa, x1 = 0.0046	787.54 ± 0.72
333.07 K, 10000 kPa, x1 = 0.0046	788.44 ± 0.72
333.07 K, 11000 kPa, x1 = 0.0046	789.33 ± 0.72
333.07 K, 12000 kPa, x1 = 0.0046	790.21 ± 0.73
333.07 K, 13000 kPa, x1 = 0.0046	791.08 ± 0.73
333.07 K, 14000 kPa, x1 = 0.0046	791.94 ± 0.73
333.07 K, 15000 kPa, x1 = 0.0046	792.79 ± 0.74
333.07 K, 16000 kPa, x1 = 0.0046	793.62 ± 0.74
333.07 K, 17000 kPa, x1 = 0.0046	794.45 ± 0.74
333.07 K, 18000 kPa, x1 = 0.0046	795.27 ± 0.75
333.07 K, 19000 kPa, x1 = 0.0046	796.06 ± 0.75
333.07 K, 20000 kPa, x1 = 0.0046	796.84 ± 0.75
